Assay results taken from PubChem BioAssay (NCI).
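1) Cells in 96-well plates. 2) Compound, 48 h, 5 concentrations. 3) Linear interpolation between surrounding doses. 4) Unreached endpoint = highest concentration. GI50 marks 50% less growth. TGI denotes the concentration required for complete inhibition of growth.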

Legend:
Assay in all cases: inhibition of tumour cell growth, NCI panel, 48 h
[1] = test system: HL-60(TB) leukemia
[2] = test system: RXF 393 renal
[3] = test system: SK-MEL-2 melanoma
[4] = test system: DU-145 prostate
[5] = test system: 786-0 renal
[6] = test system: MDA-MB-231 breast
[7] = test system: SF-268 CNS
[8] = test system: K-562 leukemia
[9] = test system: NCI-H522 lung
[10] = test system: CCRF-CEM leukemia
[11] = test system: HT29 colon
[12] = test system: NCI-H23 lung
[13] = test system: SF-295 CNS
[14] = test system: OVCAR-5 ovarian
[15] = test system: SNB-75 CNS
[16] = test system: SK-MEL-28 melanoma
[17] = test system: LOX IMVI melanoma
[18] = test system: MDA-MB-435
[19] = test system: U251 CNS
[20] = test system: T-47D breast
[21] = test system: SN12C renal
[22] = test system: HOP-92 NSCLC
[23] = test system: ACHN renal
[24] = test system: UACC-257 melanoma
[25] = test system: IGROV1 ovarian
[26] = test system: SK-MEL-5 melanoma
[27] = test system: SW-620 colon
[28] = test system: HCT-116 colon
[29] = test system: SNB-19 CNS
[30] = test system: UO-31 renal
[31] = test system: SF-539 CNS
[32] = test system: NCI-H460 lung
[33] = test system: OVCAR-8 ovarian
[34] = test system: KM12 colon
[35] = test system: COLO 205 colon
[36] = test system: OVCAR-3 ovarian
[37] = test system: SR leukemia
[38] = test system: TK-10 renal
[39] = test system: NCI-H226 lung
[40] = test system: HS 578T breast
[41] = test system: CAKI-1 renal
[42] = test system: RPMI-8226 leukemia
[43] = test system: A498 renal
[44] = test system: HCC-2998 colon
[45] = test system: A549 NSCLC
[46] = test system: BT-549 breast
[47] = test system: MCF7 breast
[48] = test system: UACC-62 melanoma
[49] = test system: M14 melanoma
[50] = test system: MALME-3M melanoma
[51] = test system: OVCAR-4 ovarian
[52] = test system: HOP-62 NSCLC
[53] = test system: MOLT-4 leukemia
[54] = test system: PC-3 prostate
[55] = test system: SK-OV-3 ovarian
[56] = test system: NCI/ADR-RES ovarian
[57] = test system: HCT-15 colon

How did the GI50 [1] turn out when `Cn1cc(C2=C(c3cccc4ccccc34)C(=O)NC2=O)c2ccccc21` was run?
Its GI50 is 10.4 µM.

And the TGI [1]?
The TGI was over 25 µM.

What about the GI50 [2] of the same compound?
Its GI50 is 4.41 µM.

What about the TGI [2] of the same compound?
Its TGI is 9.93 µM.

And the GI50 [3]?
The GI50 was 7.33 µM.

What about the TGI [3] of the same compound?
Its TGI is 18.6 µM.

And the GI50 [4]?
Its GI50 is 12.3 µM.

And the TGI [4]?
The TGI was over 25 µM.

And the GI50 [5]?
The GI50 was 7.99 µM.

What about the TGI [5] of the same compound?
The TGI was over 25 µM.

What about the GI50 [6] of the same compound?
Its GI50 is 8.74 µM.

What about the TGI [6] of the same compound?
Its TGI is over 25 µM.

And the GI50 [7]?
Its GI50 is 9.17 µM.

And the TGI [7]?
Its TGI is over 25 µM.

And the GI50 [8]?
Its GI50 is 10.3 µM.

What about the TGI [8] of the same compound?
Its TGI is over 25 µM.

And the GI50 [9]?
Its GI50 is 6.53 µM.

What about the TGI [9] of the same compound?
The TGI was 19.1 µM.

And the GI50 [10]?
Its GI50 is 8.3 µM.

What about the TGI [10] of the same compound?
The TGI was 24.5 µM.

And the GI50 [11]?
The GI50 was 7.45 µM.

And the TGI [11]?
Its TGI is over 25 µM.

And the GI50 [12]?
Its GI50 is 8.92 µM.

And the TGI [12]?
The TGI was over 25 µM.

And the GI50 [13]?
The GI50 was 8.26 µM.

And the TGI [13]?
Its TGI is over 23.1 µM.

What about the GI50 [14] of the same compound?
The GI50 was 12.8 µM.

What about the TGI [14] of the same compound?
The TGI was over 25 µM.

What about the GI50 [15] of the same compound?
The GI50 was 3.73 µM.

What about the TGI [15] of the same compound?
The TGI was over 25 µM.

What about the GI50 [16] of the same compound?
The GI50 was 8.91 µM.

And the TGI [16]?
Its TGI is over 25 µM.

What about the GI50 [17] of the same compound?
Its GI50 is 6.96 µM.

And the TGI [17]?
The TGI was over 25 µM.

And the GI50 [18]?
Its GI50 is 6.06 µM.

What about the TGI [18] of the same compound?
The TGI was over 25 µM.

What about the GI50 [19] of the same compound?
The GI50 was 7.44 µM.

And the TGI [19]?
The TGI was over 25 µM.

And the GI50 [20]?
The GI50 was 6.32 µM.

And the TGI [20]?
Its TGI is 24.5 µM.

And the GI50 [21]?
The GI50 was 6.58 µM.

And the TGI [21]?
Its TGI is over 17.5 µM.

And the GI50 [22]?
Its GI50 is 8.46 µM.

And the TGI [22]?
Its TGI is 24.3 µM.

And the GI50 [23]?
Its GI50 is 7.48 µM.

What about the TGI [23] of the same compound?
Its TGI is over 25 µM.

What about the GI50 [24] of the same compound?
The GI50 was 12.1 µM.

And the TGI [24]?
The TGI was over 25 µM.

What about the GI50 [25] of the same compound?
Its GI50 is 11.2 µM.

What about the TGI [25] of the same compound?
Its TGI is over 24.1 µM.

And the GI50 [26]?
Its GI50 is 5.1 µM.

What about the TGI [26] of the same compound?
Its TGI is 11.9 µM.

And the GI50 [27]?
The GI50 was 9.45 µM.

And the TGI [27]?
Its TGI is over 25 µM.

What about the GI50 [28] of the same compound?
Its GI50 is 5.92 µM.

And the TGI [28]?
The TGI was over 16.7 µM.

And the GI50 [29]?
The GI50 was 14 µM.

And the TGI [29]?
Its TGI is over 25 µM.

What about the GI50 [30] of the same compound?
Its GI50 is 7.38 µM.

And the TGI [30]?
Its TGI is over 25 µM.

What about the GI50 [31] of the same compound?
Its GI50 is 5.99 µM.

And the TGI [31]?
The TGI was 14.2 µM.

And the GI50 [32]?
Its GI50 is 8.2 µM.

What about the TGI [32] of the same compound?
The TGI was over 25 µM.

And the GI50 [33]?
Its GI50 is 7.17 µM.

And the TGI [33]?
Its TGI is 19 µM.

And the GI50 [34]?
Its GI50 is 7.3 µM.

And the TGI [34]?
Its TGI is over 22.6 µM.

What about the GI50 [35] of the same compound?
The GI50 was 7.23 µM.

What about the TGI [35] of the same compound?
Its TGI is over 22.9 µM.

And the GI50 [36]?
Its GI50 is 6.06 µM.

And the TGI [36]?
The TGI was 14.4 µM.

What about the GI50 [37] of the same compound?
Its GI50 is 7 µM.

What about the TGI [37] of the same compound?
Its TGI is over 20.9 µM.

What about the GI50 [38] of the same compound?
Its GI50 is 9.14 µM.

And the TGI [38]?
The TGI was over 23.9 µM.

And the GI50 [39]?
Its GI50 is 7.7 µM.

And the TGI [39]?
The TGI was over 25 µM.

And the GI50 [40]?
Its GI50 is 6.69 µM.

And the TGI [40]?
The TGI was over 24 µM.

And the GI50 [41]?
The GI50 was 5.31 µM.

What about the TGI [41] of the same compound?
Its TGI is over 22.9 µM.

And the GI50 [42]?
Its GI50 is 8.18 µM.

And the TGI [42]?
The TGI was over 19.9 µM.

What about the GI50 [43] of the same compound?
Its GI50 is 6.76 µM.

And the TGI [43]?
Its TGI is 22.5 µM.

And the GI50 [44]?
The GI50 was 12.2 µM.

What about the TGI [44] of the same compound?
Its TGI is over 25 µM.

What about the GI50 [45] of the same compound?
Its GI50 is 7.63 µM.

What about the TGI [45] of the same compound?
Its TGI is over 25 µM.

And the GI50 [46]?
Its GI50 is 7.49 µM.

What about the TGI [46] of the same compound?
The TGI was 19.7 µM.

What about the GI50 [47] of the same compound?
The GI50 was 5.7 µM.

What about the TGI [47] of the same compound?
Its TGI is over 25 µM.

And the GI50 [48]?
The GI50 was 8.33 µM.

What about the TGI [48] of the same compound?
The TGI was over 25 µM.

What about the GI50 [49] of the same compound?
Its GI50 is 11.5 µM.

And the TGI [49]?
The TGI was over 25 µM.

And the GI50 [50]?
Its GI50 is 9.45 µM.

And the TGI [50]?
The TGI was 24.2 µM.

And the GI50 [51]?
Its GI50 is 7.21 µM.

What about the TGI [51] of the same compound?
The TGI was over 23.8 µM.

What about the GI50 [52] of the same compound?
Its GI50 is 18.5 µM.

And the TGI [52]?
Its TGI is over 25 µM.

What about the GI50 [53] of the same compound?
Its GI50 is 7.9 µM.

What about the TGI [53] of the same compound?
Its TGI is over 22.5 µM.

What about the GI50 [54] of the same compound?
Its GI50 is 7.51 µM.

What about the TGI [54] of the same compound?
Its TGI is over 25 µM.

And the GI50 [55]?
The GI50 was 8.35 µM.

What about the TGI [55] of the same compound?
The TGI was over 25 µM.

And the GI50 [56]?
The GI50 was 9.59 µM.

What about the TGI [56] of the same compound?
Its TGI is over 25 µM.

What about the GI50 [57] of the same compound?
The GI50 was 6.66 µM.

What about the TGI [57] of the same compound?
Its TGI is over 25 µM.
